ChEMBL document CHEMBL1128012, “Non-peptide-based inhibitors of human immunodeficiency virus-1 protease” (Bioorg Med Chem Lett, 1994)

Each compound was assayed against T1, Human immunodeficiency virus type 1 protease (Human immunodeficiency virus 1, UniProt Q72874) (assay: Inhibitory activity was evaluated against HIV-1 protease).

SMILES | IC50
O=C1N(Cc2ccc(CBr)cc2)C(Cc2ccccc2)P(=O)(O)C(Cc2ccccc2)N1Cc1ccc(CBr)cc1 (stereo not drawn) | 18 µM
O=C1N(Cc2ccccc2)C(Cc2ccccc2)P(=O)(O)C(Cc2ccccc2)N1Cc1ccccc1 (stereo not drawn) | 21 µM
O=C1N(Cc2ccc(CO)cc2)C(Cc2ccccc2)P(=O)(O)C(Cc2ccccc2)N1Cc1ccc(CO)cc1 (stereo not drawn) | 4.8 µM
O=C1NC(Cc2ccccc2)P(=O)(O)C(Cc2ccccc2)N1 (stereo not drawn) | > 100 µM
O=C1N(Cc2ccc3ccccc3c2)C(Cc2ccccc2)P(=O)(O)C(Cc2ccccc2)N1Cc1ccc2ccccc2c1 (racemic) | 0.26 µM
O=C1N(Cc2ccc(CBr)cc2)C(Cc2ccccc2)P(=O)(O)C(Cc2ccccc2)N1Cc1ccc(CBr)cc1 (racemic) | 0.7 µM
O=C1N(Cc2ccc(CO)cc2)C(Cc2ccccc2)P(=O)(O)C(Cc2ccccc2)N1Cc1ccc(CO)cc1 (racemic) | 0.24 µM
O=C1NC(Cc2ccccc2)P(=O)(O)C(Cc2ccccc2)N1 (racemic) | > 100 µM

These compounds were tested against T1, Human immunodeficiency virus type 1 protease (assay: Inhibitory activity was evaluated against HIV-1 protease; Not Active).

SMILES | IC50
COP1(=O)C(Cc2ccccc2)N(Cc2ccccc2)C(=O)N(Cc2ccccc2)C1Cc1ccccc1 (stereo not drawn) | Not Active
COP1(=O)C(Cc2ccccc2)NC(=O)NC1Cc1ccccc1 (stereo not drawn) | Not Active
COP1(=O)C(Cc2ccccc2)N(Cc2ccc(CBr)cc2)C(=O)N(Cc2ccc(CBr)cc2)C1Cc1ccccc1 (stereo not drawn) | Not Active
COP1(=O)C(Cc2ccccc2)N(Cc2ccc3ccccc3c2)C(=O)N(Cc2ccc3ccccc3c2)C1Cc1ccccc1 (stereo not drawn) | Not Active
COP1(=O)C(Cc2ccccc2)N(Cc2ccc(CO)cc2)C(=O)N(Cc2ccc(CO)cc2)C1Cc1ccccc1 (stereo not drawn) | Not Active
